Results: patent US11660293B2, “Substituted 2-azabicyclo[3.1.1]heptane and 2-azabicyclo[3.2.1]octane derivatives as orexin receptor antagonists” (Chronos Therapeutics Limited, priority 2017, dated 2023)

What was measured:
[1] = molecular target: human Orexin type 1 receptors (Homo sapiens (Human), UniProt O43613); assay: Scintillation Proximity Assay (SPA) binding assay, [3H]SB-674042 displacement, CHO-hOX1 membranes
[2] = molecular target: human Orexin type 2 receptors (Homo sapiens (Human), UniProt O43614); assay: Scintillation Proximity Assay (SPA) binding assay, [3H]EMPA displacement, HEK-hOX2 membranes
Chain of human Orexin type 2 receptors (O43614 whole entry): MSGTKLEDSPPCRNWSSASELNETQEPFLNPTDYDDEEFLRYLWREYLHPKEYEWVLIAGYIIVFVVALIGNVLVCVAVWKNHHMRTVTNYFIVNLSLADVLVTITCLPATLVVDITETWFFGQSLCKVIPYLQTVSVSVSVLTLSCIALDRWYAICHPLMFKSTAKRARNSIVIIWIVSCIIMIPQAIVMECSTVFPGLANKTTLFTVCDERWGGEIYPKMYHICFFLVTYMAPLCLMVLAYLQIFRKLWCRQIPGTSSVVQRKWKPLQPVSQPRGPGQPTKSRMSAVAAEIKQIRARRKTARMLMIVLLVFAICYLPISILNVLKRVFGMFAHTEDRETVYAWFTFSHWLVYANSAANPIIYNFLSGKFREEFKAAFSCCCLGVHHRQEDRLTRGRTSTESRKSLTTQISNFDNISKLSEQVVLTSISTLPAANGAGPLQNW

Chain of human Orexin type 1 receptors (O43613 whole entry): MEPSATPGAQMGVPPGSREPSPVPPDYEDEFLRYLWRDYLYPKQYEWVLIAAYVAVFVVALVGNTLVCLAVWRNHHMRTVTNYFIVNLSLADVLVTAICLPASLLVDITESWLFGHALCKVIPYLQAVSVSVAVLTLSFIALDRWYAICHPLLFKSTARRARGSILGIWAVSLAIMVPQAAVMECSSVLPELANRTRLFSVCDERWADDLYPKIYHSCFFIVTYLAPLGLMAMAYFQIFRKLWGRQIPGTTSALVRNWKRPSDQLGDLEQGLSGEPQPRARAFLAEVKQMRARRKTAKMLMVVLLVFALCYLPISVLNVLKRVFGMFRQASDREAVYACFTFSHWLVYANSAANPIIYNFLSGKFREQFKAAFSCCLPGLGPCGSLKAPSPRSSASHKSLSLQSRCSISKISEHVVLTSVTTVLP

| Structure (SMILES) | OX1 pKi (SPA binding) ([1]; Table 2, [3H]SB-674042 2 nM) | OX2 pKi (SPA binding) ([2]; Table 2, [3H]EMPA 2 nM) | OX1 pKi (SPA binding) ([1]; Table 1, [3H]SB-674042 2 nM) | OX2 pKi (SPA binding) ([2]; Table 1, [3H]EMPA 2 nM) |
| --- | --- | --- | --- | --- |
| C[C@@H]1C2CC(C2)N(C(=O)c2cc(F)ccc2-n2nccn2)C1CNc1ccc(C(F)(F)F)cn1 (mixture of isomers) [Example 190, cis-N-({2-[5-fluoro-2-(2H-1,2,3-triazol-2-yl)benzoyl]-4-methyl-2-azabicyclo[3.1.1]heptan-3-yl}methyl)-5-(trifluoromethyl)pyridin-2-amine] | 7.8 | 4.98 | – | – |
| C[C@@H]1C2CC(C2)N(C(=O)c2cc(Cl)ccc2-n2nccn2)C1CNc1ccc(C(F)(F)F)nn1 (stereo partly drawn) [Example 247, cis-N-({2-[5-chloro-2-(2H-1,2,3-triazol-2-yl)benzoyl]-4-methyl-2-azabicyclo[3.1.1]heptan-3-yl}methyl)-6-(trifluoromethyl)pyridazin-3-amine] | 6.74 | 4.88 | – | – |
| C[C@@H]1C2CC(C2)N(C(=O)c2cc(Cl)ccc2-n2nccn2)C1CNc1cnc2ncccc2n1 (mixture of isomers) [Example 206, cis-N-({2-[5-chloro-2-(2H-1,2,3-triazol-2-yl)benzoyl]-4-methyl-2-azabicyclo[3.1.1]heptan-3-yl}methyl)pyrido[2,3-b]pyrazin-2-amine] | 7.79 | 5.06 | – | – |
| Cc1nc(C(=O)N2C(COc3ccc(Br)cc3)CC3CC2C3)c(-c2ccccc2)s1 (stereo not shown) [Example 46] | – | – | 7.62 | 6.51 |
| Cc1ccc(-n2nccn2)c(C(=O)N2C3CC(C3)[C@@H](C)C2CNc2cnc(C(F)(F)F)cn2)c1 (single isomer, unassigned) [Example 256, N-{[(3R,4S) or (3S,4R)-4-methyl-2-[5-methyl-2-(2H-1,2,3-triazol-2-yl)benzoyl]-2-azabicyclo[3.1.1]heptan-3-yl]methyl}-5-(trifluoromethyl)pyrazin-2-amine] | 8.75 | 5.18 | – | – |
| C[C@@H]1C2CC(C2)N(C(=O)c2cc(C#N)ccc2-n2nccn2)C1CNc1cnc2cc(F)ccc2n1 (mixture of isomers) [Example 238, cis-3-(3-{[(6-fluoroquinoxalin-2-yl)amino]methyl}-4-methyl-2-azabicyclo[3.1.1]heptane-2-carobnyl)-4-(2H-1,2,3-triazol-2-yl)benzonitrile] | 7.98 | 6.32 | – | – |
| C[C@@H]1C2CC(C2)N(C(=O)c2cc(Cl)ccc2-n2nccn2)C1CNc1ncc(C(F)(F)F)cn1 (stereo partly drawn) [Example 239, cis-N-({2-[5-chloro-2-(2H-1,2,3-triazol-2-yl)benzoyl]-4-methyl-2-azabicyclo[3.1.1]heptan-3-yl}methyl)-5-(trifluoromethyl)pyrimidin-2-amine] | 8.04 | 5.51 | – | – |
| Cc1nc(C(=O)N2C3CC(C3)[C@H](C)C2COc2ccc(F)cc2)c(-c2ncccn2)s1 (mixture of isomers) [Example 113, trans-3-[(4-fluorophenoxy)methyl]-4-methyl-2-[2-methyl-5-(pyrimidin-2-yl)-1,3-thiazole-4-carbonyl]-2-azabicyclo[3.1.1]heptane] | 8.21 | 5.72 | – | – |
| Cc1ccc(-n2nccn2)c(C(=O)N2C3CC(C3)[C@@H](C)C2CNc2ncc(C(F)(F)F)cn2)n1 (single isomer, unassigned) [Example 194, N-{[(3S,4R) or (3R,4S)-4-methyl-2-[6-methyl-3-(2H-1,2,3-triazol-2-yl)pyridine-2-carbonyl]-2-azabicyclo[3.1.1]heptan-3-yl]methyl}-5-(trifluoromethyl)pyrimidin-2-amine] | 7.51 | 4.66 | – | – |
| Cc1nc(C(=O)N2C3CC(C3)[C@@H](C)C2COc2ccc(F)cc2)c(-c2cncc(Cl)c2)s1 (mixture of isomers) [Example 139, cis-2-[5-(5-chloropyridin-3-yl)-2-methyl-1,3-thiazole-4-carbonyl]-3-[(4-fluorophenoxy)methyl]-4-methyl-2-azabicyclo[3.1.1]heptane] | 7.85 | 6.18 | – | – |
| Cc1nc(C(=O)N2C3CC(C3)[C@H](C)C2COc2ccc(F)cc2)c(-n2nccn2)s1 (mixture of isomers) [Example 126, trans-3-[(4-fluorophenoxy)methyl]-4-methyl-2-[2-methyl-5-(2H-1,2,3-triazol-2-yl)-1,3-thiazole-4-carbonyl]-2-azabicyclo[3.1.1]heptane] | 7.39 | 5.7 | – | – |
| Cc1ccc(-n2nccn2)c(C(=O)N2C3CC(C3)[C@@H](C)C2COc2ccc(F)cn2)n1 (mixture of isomers) [Example 130, cis-3-{[(5-fluoropyridin-2-yl)oxy]methyl}-4-methyl-2-[6-methyl-3-(2H-1,2,3-triazol-2-yl)pyridine-2-carbonyl]-2-azabicyclo[3.1.1]heptane] | 6.9 | 6.08 | – | – |
| Cc1nc(C(=O)N2C3CC(C3)[C@H](C)C2COc2ccc(F)cn2)c(-c2ncccn2)s1 (mixture of isomers) [Example 116, trans-3-{[(5-fluoropyridin-2-yl)oxy]methyl}-4-methyl-2-[2-methyl-5-(pyrimidin-2-yl)-1,3-thiazole-4-carbonyl]-2-azabicyclo[3.1.1]heptane] | 7.32 | 5.26 | – | – |
| Cc1ccc(-c2ccccn2)c(C(=O)N2C3CC(C3)[C@@H](C)C2COc2ccc(F)cn2)n1 (mixture of isomers) [Example 131, cis-2′-(3-{[(-fluoropyridin-2-yl)oxy]methyl}-4-methyl-2-azabicyclo[3.1.1]heptane-2-carbonyl)-6′-methyl-2,3′-bipyridine] | 7.02 | 6.1 | – | – |
| C[C@@H]1C2CC(C2)N(C(=O)c2cc(F)ccc2-n2nccn2)C1CNc1cnc(C(F)(F)F)cn1 (mixture of isomers) [Example 221, cis-N-({2-[5-fluoro-2-(2H-1,2,3-triazol-2-yl)benzoyl]-4-methyl-2-azabicyclo[3.1.1]heptan-3-yl}methyl)-5-(trifluoromethyl)pyrazin-2-amine] | 7.73 | 4.94 | – | – |
| C[C@@H]1C2CC(C2)N(C(=O)c2c(F)cccc2-n2nccn2)C1CNc1cnc(C(F)(F)F)cn1 (stereo partly shown) [Example 253] | 7.88 | 5 | – | – |
| Cc1ccc(-n2nccn2)c(C(=O)N2C3CC(C3)[C@@H](C)C2CNc2nc3ccc(F)cc3o2)n1 (single isomer, unassigned) [Example 219, 6-fluoro-N-{[(3S,4R) or (3R,4S)-4-methyl-2-[6-methyl-3-(2H-1,2,3-triazol-2-yl)pyridine-2-carbonyl]-2-azabicyclo[3.1.1]heptan-3-yl]methyl}-1,3-benzoxazol-2-amine] | 8.71 | 5.79 | – | – |
| Cc1nc(C(=O)N2C(COc3ccc(C(F)(F)F)cn3)CC3CC2C3)c(-c2ccccc2)s1 (stereo not shown) [Example 55] | – | – | 7.38 | 6.49 |
| Cc1nc(C(=O)N2C(CNc3nc4ccc(F)cc4s3)CC3CC2C3)c(-c2ccccc2)s1 (stereo not shown) [Example 61, 6-fluoro-N-{[2-(2-methyl-5-phenyl-1,3-thiazole-4-carbonyl)-2-azabicyclo[3.1.1]heptan-3-yl]methyl}-1,3-benzothiazol-2-amine] | – | – | 9.12 | 8.03 |
| Cc1ccc(-c2ncccn2)c(C(=O)N2C3CC(C3)[C@H](C)C2COc2ccc(Cl)cn2)n1 (mixture of isomers) [Example 118, trans-3-{[(5-chloropyridin-2-yl)oxy]methyl}-4-methyl-2-[6-methyl-3-(pyrimidin-2-yl)pyridine-2-carbonyl]-2-azabicyclo[3.1.1]heptane] | 7.39 | 5.75 | – | – |
| C[C@@H]1C2CC(C2)N(C(=O)c2cc(Cl)ccc2-n2nccn2)C1CNc1cnc2cc(F)ccc2n1 (mixture of isomers) [Example 207, cis-N-({2-[5-chloro-2-(2H-1,2,3-triazol-2-yl)benzoyl]-4-methyl-2-azabicyclo[3.1.1]heptan-3-yl}methyl)-6-fluoroquinoxalin-2-amine] | 8.46 | 6.44 | – | – |
| Cc1ccc(-n2nccn2)c(C(=O)N2C3CC(C3)[C@@H](C)C2CNc2nc3ccccc3s2)n1 (single isomer, unassigned) [Example 180, N-{[(3R,4S) or (3S,4R)-4-methyl-2-[6-methyl-3-(2H-1,2,3-triazol-2-yl)pyridine-2-carbonyl]-2-azabicyclo[3.1.1]heptan-3-yl]methyl}-1,3-benzothiazol-2-amine] | 8.78 | 5.58 | – | – |
| Cc1ccc(-n2nccn2)c(C(=O)N2C3CC(C3)[C@@H](C)C2CNc2nc3ccc(F)cc3o2)n1 (mixture of isomers) [Example 218, cis-6-fluoro-N-({4-methyl-2-[6-methyl-3-(2H-1,2,3-triazol-2-yl)pyridine-2-carbonyl]-2-azabicyclo[3.1.1]heptan-3-yl}methyl)-1,3-benzoxazol-2-amine] | 8.33 | 5.47 | – | – |
| C[C@@H]1C2CC(C2)N(C(=O)c2ccc(F)cc2-n2nccn2)C1CNc1cnc(C(F)(F)F)cn1 (stereo partly shown) [Example 252] | 7.19 | 4.95 | – | – |
| C[C@@H]1C2CC(C2)N(C(=O)c2cc(F)ccc2-n2nccn2)C1CNc1cnc2cc(F)ccc2n1 (stereo in doubt) [Example 224, cis-6-fluoro-N-({2-[5-fluoro-2-(2H-1,2,3-triazol-2-yl)benzoyl]-4-methyl-2-azabicyclo[3.1.1]heptan-3-yl}methyl)quinoxalin-2-amine] | 8.04 | 6.19 | – | – |
| Cc1nc(C(=O)N2C(COc3ccccc3F)CC3CC2C3)c(-c2ccccc2)s1 (stereo not shown) [Example 45] | – | – | 7.22 | 7.12 |
